Several values for one entry are separate records, joined by “and”; a condition that tells them apart may be missing. Equal values may be shown once.
Key:
[1] = system: bed bugs (C. lectularius); experiment: Efficacy against bed bugs on Guinea pigs (Example 2C); assay type: in vivo, Cimex lectularius; details: Guinea pig
Description: (§1) Six Guinea pigs were treated orally, subcutaneously, or intraperitoneally with 10 mg/kg bodyweight of Compound 11-1 or fipronil (positive control). The Guinea pigs were locally co-infested with juvenile soft ticks (O. moubata) and bed bugs (C. lectularius) once before the treatment, and at different time points after treatment between days 2 and 50. Ten engorged ticks/bed bugs were collected to assess the percentage of killed individuals per species 24 hr after each infestation.
(§2) For Guinea pigs treated with Compound 11-1, the ticks and bed bugs died within 1 to 5 hr following infestation up to Day 29, and within 8 to 24 hr after day 29. For Guinea pigs treated with fipronil, ticks and bed bugs died within 1 to 7 hr after infestation up to Day 29, and within 8 to 24 hr after day 29.

[2] = Side effects in Guinea pigs, hard tick studies (Example 2D); assay type: in vivo; details: guinea pig, in vivo
Description: (§3) Guinea pigs were divided into groups of three. Each group was subjected to one of the following treatments with either Compound 11-1, fipronil (positive control), or neither (negative control):
(§4) • 1. 100 ppm body weight topical administration by animal dip • 2. 10 mg/kg body weight oral administration • 3. 10 mg/kg body weight subcutaneous administration • 4. No treatment (negative control)
(§5) • 1. 25 ppm body weight topical administration by animal dip • 2. 2.5 mg/kg body weight oral administration • 3. 2.5 mg/kg body weight subcutaneous administration • 4. No treatment (negative control) One day before the treatment, all the Guinea pigs were infested with 100 vital juvenile (“nymph”) hard ticks (brown dog ticks, R. sanguineus). Engorged, detached nymphs were counted (eN) from Day 4 to Day 8 to calculate the efficacy of the treatments according to following formula: […]
In the first study, 32 engorged R. sanguineus nymphs were collected from animals of the untreated negative control group. And in the second study, 75 engorged R. sanguineus nymphs were collected from animals of the untreated negative control group. […] Thus, the inhibition of engorged nymphs for both Compound 11-1 and fipronil was 100%.

[3] = system: juvenile soft ticks (O. moubata); experiment: Efficacy against soft (Argaside) ticks on Guinea pigs (Example 2C); assay type: in vivo, Ornithodoros moubata; details: Guinea pig, up to Day 50
Description: as §1, §2

[4] = Side effects in mice, flea study (Example 2A); assay type: in vivo; details: topical 100 ppm, oral or subcutaneous 10 mg/kg
Description: (§6) Mice were divided into groups of three, and treated topically with 100 ppm body weight, orally with 10 mg/kg bodyweight, or subcutaneously with 10 mg/kg bodyweight of Compound 11-1, fipronil (positive control), or nothing (negative control). These mice were sedated and infested with adult fleas (C. felis) 1, 3, 6, and 24 hr after treatment. Fleas were recovered from the mice after approximately 30 minutes of feeding. The assessment of flea inhibition (% of dead and damaged fleas) was conducted 1 and 24 hr after each infestation.

[5] = Side effects in Guinea pigs, soft tick and bed bug study (Example 2C); assay type: in vivo; details: Guinea pigs; oral, subcutaneous or intraperitoneal 10 mg/kg
Description: as §1

adult fleas (C. felis) = experiment: Efficacy against fleas on mice (Example 2A); assay type: in vivo, Ctenocephalides felis
Description: as §6

[6] = system: brown dog ticks, R. sanguineus (nymphs); experiment: Efficacy against hard (Ixodide) ticks on Guinea pigs (Example 2D); assay type: in vivo, Rhipicephalus sanguineus; details: all treated groups of Study 1 (100 ppm dip, 10 mg/kg oral, 10 mg/kg subcutaneous) and Study 2 (25 ppm dip, 2.5 mg/kg oral, 2.5 mg/kg subcutaneous), Day 4 to Day 8
Description: as §3, §4, §5
In addition, collected ticks were assessed for molting into the next stage.

M. musculinus = experiment: Efficacy against mites on mice (Example 2B); assay type: in vivo, Myocoptes musculinus; parameters: key: “+”=low infestation rate; “++”=medium infestation rate; “+++”=high infestation rate; details: repeated 7 days later
Description: The mice were divided into groups of three, and treated topically with 100 ppm body weight, orally with 10 mg/kg body weight, or subcutaneously with 10 mg/kg body weight of Compound 11-1, fipronil (positive control), or nothing (negative control). This treatment was then repeated 7 days later. The infestation rate per mouse (“+”=low infestation rate, “++”=medium infestation rate, “+++”=high infestation rate) was assessed repeatedly on days 1, 6, 9, 13, and 23. Efficacy was defined as the inhibition of the mite infestation rate on treated mice relative to the negative control group.

[7] = system: cat fleas (Ctenocephalides felis); experiment: Adult fleas fed on artificial membranes with spiked blood (Example 1); details: 48 hr continuous feeding
Description: Adult fleas (20-30) were fed on artificial membranes with blood spiked with Compound 10-1, Compound 11-1, or a positive control (fipronil) at a concentration of 100, 10, or 1 ppm. Flea efficacy was assessed after 48 hr of continuous feeding by comparing the number of killed and damaged fleas with the number of fed fleas. Flea efficacy was 100% for Compound 10-1, Compound 11-1, and fipronil at 100, 10, and 1 ppm.

N#Cc1nn(-c2c(Cl)cc(C(F)(F)F)cc2Cl)c(N)c1[S+]([O-])C(F)(F)F (centres unmarked) [fipronil, reference compound]
Efficacy against bed bugs (killed 24 hr after infestation) ([1]; intraperitoneal 10 mg/kg, up to Day 18): 100% efficacy was observed up to Day 18. | Efficacy against bed bugs (killed 24 hr after infestation) ([1]; oral 10 mg/kg, up to Day 18): 100% efficacy was observed up to Day 18. | Efficacy against bed bugs (killed 24 hr after infestation) ([1]; subcutaneous 10 mg/kg, on Day 37): up to Day 35. 50% efficacy was observed | Side effects [2]: No side effects were observed | Efficacy against soft ticks (killed 24 hr after infestation) ([3]; intraperitoneal 10 mg/kg): 100% efficacy was observed up to Day 50. | Efficacy against soft ticks (killed 24 hr after infestation) ([3]; oral 10 mg/kg): 100% efficacy was observed up to Day 50. | Efficacy against soft ticks (killed 24 hr after infestation) ([3]; subcutaneous 10 mg/kg): 100% efficacy was observed up to Day 50. | Side effects [4]: No side effects were observed | Side effects [5]: No side effects were observed | Flea inhibition (% of dead and damaged fleas) (adult fleas (C. felis); oral 10 mg/kg, infested 1 hr after treatment, assessed 1 hr after infestation): 0-2% | Flea inhibition (% of dead and damaged fleas) (adult fleas (C. felis); oral 10 mg/kg, infested 1 hr after treatment, assessed 24 hr after infestation): 3.3% | Flea inhibition (% of dead and damaged fleas) (adult fleas (C. felis); oral 10 mg/kg, infested 3 hr after treatment, assessed 1 hr after infestation): 0-2% | Flea inhibition (% of dead and damaged fleas) (adult fleas (C. felis); oral 10 mg/kg, infested 3 hr after treatment, assessed 24 hr after infestation): 12.3% | Flea inhibition (% of dead and damaged fleas) (adult fleas (C. felis); oral 10 mg/kg, infested 6 hr after treatment, assessed 1 hr after infestation): 0-2% | Flea inhibition (% of dead and damaged fleas) (adult fleas (C. felis); oral 10 mg/kg, infested 6 hr after treatment, assessed 24 hr after infestation): 6.7% | Flea inhibition (% of dead and damaged fleas) (adult fleas (C. felis); oral 10 mg/kg, infested 24 hr after treatment, assessed 1 hr after infestation): 0-2% | Flea inhibition (% of dead and damaged fleas) (adult fleas (C. felis); oral 10 mg/kg, infested 24 hr after treatment, assessed 24 hr after infestation): 7.7% | Flea inhibition (% of dead and damaged fleas) (adult fleas (C. felis); subcutaneous 10 mg/kg, infested 1 hr after treatment, assessed 1 hr after infestation): 0-2% | Flea inhibition (% of dead and damaged fleas) (adult fleas (C. felis); subcutaneous 10 mg/kg, infested 1 hr after treatment, assessed 24 hr after infestation): 1.0% | Flea inhibition (% of dead and damaged fleas) (adult fleas (C. felis); subcutaneous 10 mg/kg, infested 3 hr after treatment, assessed 1 hr after infestation): 0-2% | Flea inhibition (% of dead and damaged fleas) (adult fleas (C. felis); subcutaneous 10 mg/kg, infested 3 hr after treatment, assessed 24 hr after infestation): 15.7% | Flea inhibition (% of dead and damaged fleas) (adult fleas (C. felis); subcutaneous 10 mg/kg, infested 6 hr after treatment, assessed 1 hr after infestation): 0-2% | Flea inhibition (% of dead and damaged fleas) (adult fleas (C. felis); subcutaneous 10 mg/kg, infested 6 hr after treatment, assessed 24 hr after infestation): 97.7% | Flea inhibition (% of dead and damaged fleas) (adult fleas (C. felis); subcutaneous 10 mg/kg, infested 24 hr after treatment, assessed 1 hr after infestation): 0-2% | Flea inhibition (% of dead and damaged fleas) (adult fleas (C. felis); subcutaneous 10 mg/kg, infested 24 hr after treatment, assessed 24 hr after infestation): 94.3% | Flea inhibition (% of dead and damaged fleas) (adult fleas (C. felis); topical 100 ppm body weight, infested 1 hr after treatment, assessed 1 hr after infestation): 0-2% | Flea inhibition (% of dead and damaged fleas) (adult fleas (C. felis); topical 100 ppm body weight, infested 1 hr after treatment, assessed 24 hr after infestation): 100% | Flea inhibition (% of dead and damaged fleas) (adult fleas (C. felis); topical 100 ppm body weight, infested 3 hr after treatment, assessed 1 hr after infestation): 0-2% | Flea inhibition (% of dead and damaged fleas) (adult fleas (C. felis); topical 100 ppm body weight, infested 3 hr after treatment, assessed 24 hr after infestation): 94.3% | Flea inhibition (% of dead and damaged fleas) (adult fleas (C. felis); topical 100 ppm body weight, infested 6 hr after treatment, assessed 1 hr after infestation): 0-2% | Flea inhibition (% of dead and damaged fleas) (adult fleas (C. felis); topical 100 ppm body weight, infested 6 hr after treatment, assessed 24 hr after infestation): 100% | Flea inhibition (% of dead and damaged fleas) (adult fleas (C. felis); topical 100 ppm body weight, infested 24 hr after treatment, assessed 1 hr after infestation): 0-2% | Flea inhibition (% of dead and damaged fleas) (adult fleas (C. felis); topical 100 ppm body weight, infested 24 hr after treatment, assessed 24 hr after infestation): 76.7% | Engorged R. sanguineus nymphs collected [6]: no nymphs were collected | Inhibition of engorged nymphs [6]: 100% | Mite infestation rate per mouse (M. musculinus; oral 10 mg/kg, Day 1): +++ | Mite infestation rate per mouse (M. musculinus; oral 10 mg/kg, Day 6): ++ to +++ | Mite infestation rate per mouse (M. musculinus; oral 10 mg/kg, Day 9): ++ to +++ | Mite infestation rate per mouse (M. musculinus; oral 10 mg/kg, Day 13): + | Mite infestation rate per mouse (M. musculinus; oral 10 mg/kg, Day 23): + | Mite infestation rate per mouse (M. musculinus; subcutaneous 10 mg/kg, Day 1): +++ | Mite infestation rate per mouse (M. musculinus; subcutaneous 10 mg/kg, Day 6): 2 mice: + to ++ and 1 mouse: +++ | Mite infestation rate per mouse (M. musculinus; subcutaneous 10 mg/kg, Day 9): 2 mice: + to ++ and 1 mouse: +++ | Mite infestation rate per mouse (M. musculinus; subcutaneous 10 mg/kg, Day 13): + | Mite infestation rate per mouse (M. musculinus; subcutaneous 10 mg/kg, Day 23): + to ++ | Mite infestation rate per mouse (M. musculinus; topical 100 ppm body weight, Day 1): 2 mice: + to ++ and 1 mouse: +++ (all | Mite infestation rate per mouse (M. musculinus; topical 100 ppm body weight, Day 6): + to ++ | Mite infestation rate per mouse (M. musculinus; topical 100 ppm body weight, Day 9): 2 mice: none and 1 mouse: + | Mite infestation rate per mouse (M. musculinus; topical 100 ppm body weight, Day 13): none | Mite infestation rate per mouse (M. musculinus; topical 100 ppm body weight, Day 23): none | Flea efficacy ([7]; blood spiked at 1 ppm): 100% | Flea efficacy ([7]; blood spiked at 10 ppm): 100% | Flea efficacy ([7]; blood spiked at 100 ppm): 100%

Source: patent US20240239759A1, “ISOXAZOLINE COMPOSITIONS AND THEIR USE AS ANTIPARASITICS” (Intervet Inc., priority 2007, published 2024)
